# Where two headings read alike, the source gives them in different places.
# Legend:
# Ba/F3 c-Kit K642E = assay: Ba/F3 c-Kit anti-proliferation assay; assay type: cell-based; settings: Mus musculus, BaF3, Ba/F3 c-Kit K642E, read-out: Anti-proliferation activities (IC50)
# Experimental: (§1) To further evaluate the test compound, it is tested against c-Kit mutations commonly occurring in melanoma and/or GIST. Ba/F3 cell line (from ATCC) are transfected with wild type (WT) c-Kit, c-Kit L576P (Willmore-Payne et al, Human Pathology, 2005, 36(5), 486; Willmore-Payne et al, Human Pathology, 2006, 37, 520), c-Kit K642E (Willmore et al, Am J Clin Pathol, 2004, 122(2), 206; Monsel et al, Oncogene, 2010, 29, 227), c-Kit T670I (Tamborini et al, Oncogene, 2006, 25, 6140), or c-Kit V654A (Tamborini et al, Oncogene, 2006, 25, 6140), respectively are established by retroviral transfection methods well known and used by those skilled in the art. The mutations are generated by polymerase chain reaction (PCR) mutagenesis and confirmed by automated sequencing of the PCR-amplified c-Kit expression construct. Ba/F3 stable cell lines are generated by transfecting with plasmid DNA. Expression of the appropriate c-Kit mutants is confirmed by Western blot analysis.
# (§2) Wild type Ba/F3 cells are generally dependent on IL-3 for growth. After c-Kit transfection, these cells are grown in Ba/F3 ATCC recommended growth medium in the presence of stem cell factor (SCF), the ligand of c-Kit. The anti-proliferation activities of test compounds against these cells are tested in the presence of IL-3 or SCF.
# Ba/F3 c-Kit L576P = assay: Ba/F3 c-Kit anti-proliferation assay; assay type: cell-based; settings: Mus musculus, BaF3, Ba/F3 c-Kit L576P, read-out: Anti-proliferation activities (IC50)
# Experimental: as §1, §2
# Ba/F3 c-Kit T670I = assay: Ba/F3 c-Kit anti-proliferation assay; assay type: cell-based; settings: Mus musculus, BaF3, Ba/F3 c-Kit T670I, read-out: Anti-proliferation activities (IC50)
# Experimental: as §1, §2
# Ba/F3 c-Kit V654A = assay: Ba/F3 c-Kit anti-proliferation assay; assay type: cell-based; settings: Mus musculus, BaF3, Ba/F3 c-Kit V654A, read-out: Anti-proliferation activities (IC50)
# Experimental: as §1, §2
# Ba/F3 c-Kit WT = assay: Ba/F3 c-Kit anti-proliferation assay; assay type: cell-based; settings: Mus musculus, BaF3, Ba/F3 c-Kit WT, read-out: Anti-proliferation activities (IC50)
# Experimental: as §1, §2
# B-Raf (V600E) = B-Raf (V600E) (Homo sapiens, UniProt P15056, V600E); assay: ActivX KiNativ A375 whole cell lysate assay; assay type: binding
# Chain of B-Raf (V600E) (P15056 whole entry V600E): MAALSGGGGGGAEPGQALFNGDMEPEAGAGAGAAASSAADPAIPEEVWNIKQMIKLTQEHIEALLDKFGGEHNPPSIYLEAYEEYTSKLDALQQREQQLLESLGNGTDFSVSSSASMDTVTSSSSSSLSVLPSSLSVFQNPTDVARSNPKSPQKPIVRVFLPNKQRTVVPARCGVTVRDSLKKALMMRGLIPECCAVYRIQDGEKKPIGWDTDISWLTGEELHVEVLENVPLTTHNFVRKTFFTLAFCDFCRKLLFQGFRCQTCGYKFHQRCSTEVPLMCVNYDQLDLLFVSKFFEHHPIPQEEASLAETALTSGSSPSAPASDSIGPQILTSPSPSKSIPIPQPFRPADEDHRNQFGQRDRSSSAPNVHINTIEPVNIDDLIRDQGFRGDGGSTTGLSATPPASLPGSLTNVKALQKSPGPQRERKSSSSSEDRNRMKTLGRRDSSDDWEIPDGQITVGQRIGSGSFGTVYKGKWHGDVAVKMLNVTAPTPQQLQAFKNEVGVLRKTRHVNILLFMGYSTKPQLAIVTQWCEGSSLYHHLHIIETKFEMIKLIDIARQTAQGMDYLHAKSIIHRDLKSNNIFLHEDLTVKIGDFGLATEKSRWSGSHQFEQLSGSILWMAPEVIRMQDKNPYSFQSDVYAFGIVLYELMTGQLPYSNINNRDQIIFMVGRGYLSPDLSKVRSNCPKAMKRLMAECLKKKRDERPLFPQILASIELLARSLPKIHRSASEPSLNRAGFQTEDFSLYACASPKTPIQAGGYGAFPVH
# KATOIII = assay: CellTiter-Glo proliferation and viability assay; assay type: cell-based; settings: Homo sapiens, KATO III
# A2780 = assay: CellTiter-Glo proliferation and viability assay; assay type: cell-based; settings: Homo sapiens
# NCI-H1975 = assay: CellTiter-Glo proliferation and viability assay; assay type: cell-based; settings: Homo sapiens
# U-266 = assay: CellTiter-Glo proliferation and viability assay; assay type: cell-based; settings: Homo sapiens, read-out: Abs IC50
# NCI-H2052 = assay: CellTiter-Glo proliferation and viability assay; assay type: cell-based; settings: Homo sapiens
# SNU-449 = assay: CellTiter-Glo proliferation and viability assay; assay type: cell-based; settings: Homo sapiens
# SW620 = assay: CellTiter-Glo proliferation and viability assay; assay type: cell-based; settings: Homo sapiens
# NCI-H522 = assay: CellTiter-Glo proliferation and viability assay; assay type: cell-based; settings: Homo sapiens
# RKO = assay: CellTiter-Glo proliferation and viability assay; assay type: cell-based; settings: Homo sapiens
# M059K = assay: CellTiter-Glo proliferation and viability assay; assay type: cell-based; settings: Homo sapiens
# EB2 = assay: CellTiter-Glo proliferation and viability assay; assay type: cell-based; settings: Homo sapiens
# LN 18 = assay: CellTiter-Glo proliferation and viability assay; assay type: cell-based; settings: Homo sapiens
# LNCaP-Clone-FGC = assay: CellTiter-Glo proliferation and viability assay; assay type: cell-based; settings: Homo sapiens
# NCI-H1793 = assay: CellTiter-Glo proliferation and viability assay; assay type: cell-based; settings: Homo sapiens
# A375 V600E xenograft = assay: A375 xenograft tumor model, efficacy; assay type: in vivo, rat; settings: nude rats, oral twice a day 5, 10, 15, and 20 mg/kg for 21 days
# Experimental: Briefly, 10×10^6 cells (A375) or 5×10^6 cells (HCT-116) in a 1:1 medium and matrigel mix (0.2 mL total volume) are implanted by subcutaneous injection in the hind leg of nude female rats (NIH model No. NIHRNU-M from Taconic). A total of 8 rats in each group are used for the efficacy study, and a total of 3-4 rats in each group are used for a pharmacodynamic study. The Eli Lilly and Company Animal Care and Use Committee approved all the experimental protocols. […] Tumor growth and body weight are monitored over time to evaluate activity and signs of toxicity. Bidimensional measurements of tumors are performed twice a week and tumor volumes are calculated based on mid-axis length and mid-axis width. Tumor volume data are transformed to a log scale to equalize variance across time and treatment groups. The log volume data are analyzed with a two-way repeated measures analysis of variance by time and treatment using the MIXED® procedures in SAS® software (version 8.2). The correlation model for the repeated measures is spatial power. Treated groups are compared to the control group at each time point. The MIXED® procedure is also used separately for each treatment group to calculate adjusted means and standard errors at each time point. […]
smiles,measurement,setting,value
"CNc1ncc2cc(-c3cc(NC(=O)NCCC(C)(C)C)c(F)cc3C)c(C)nc2n1 [Example 1, 1-(3,3-Dimethylbutyl)-3-(2-fluoro-4-methyl-5-(7-methyl-2-(methylamino)pyrido[2,3-d]pyrimidin-6-yl)phenyl)urea]",IC50,Ba/F3 c-Kit K642E; IL-3,1200 nM
same,IC50,Ba/F3 c-Kit K642E; SCF,47 nM
same,IC50,Ba/F3 c-Kit L576P; IL-3,2080 nM
same,IC50,Ba/F3 c-Kit L576P; SCF,179 nM
same,IC50,Ba/F3 c-Kit T670I; IL-3,5920 nM
same,IC50,Ba/F3 c-Kit T670I; SCF,290 nM
same,IC50,Ba/F3 c-Kit V654A; IL-3,2940 nM
same,IC50,Ba/F3 c-Kit V654A; SCF,86 nM
same,IC50,Ba/F3 c-Kit WT; IL-3,2860 nM
same,IC50,Ba/F3 c-Kit WT; SCF,62 nM
same,inhibition at 0.1 µM,B-Raf (V600E); 100 nM,82.9%
same,% inhibition,"B-Raf (V600E); 100 nM, 0.1 µM",82%
same,inhibition at 1 µM,B-Raf (V600E); 1000 nM,96.5%
same,% inhibition,"B-Raf (V600E); 1000 nM, 1 µM",>98%
same,IC50,KATOIII; read-out: Abs IC50,0.33 nM
same,IC50,KATOIII; read-out: Rel IC50,0.33 nM
same,IC50,A2780; read-out: Abs IC50,0.81 nM
same,IC50,A2780; read-out: Rel IC50,0.2 nM
same,IC50,NCI-H1975; read-out: Abs IC50,0.93 nM
same,IC50,NCI-H1975; read-out: Rel IC50,0.69 nM
same,IC50,U-266,1.1 nM
same,IC50,NCI-H2052; read-out: Abs IC50,1.27 nM
same,IC50,NCI-H2052; read-out: Rel IC50,0.33 nM
same,IC50,SNU-449; read-out: Abs IC50,1.87 nM
same,IC50,SNU-449; read-out: Rel IC50,2.01 nM
same,IC50,"SW620; SW-620, read-out: Abs IC50",2.86 nM
same,IC50,"SW620; SW-620, read-out: Rel IC50",0.46 nM
same,IC50,NCI-H522; read-out: Abs IC50,4.5 nM
same,IC50,NCI-H522; read-out: Rel IC50,0.22 nM
same,IC50,RKO; read-out: Abs IC50,4.92 nM
same,IC50,RKO; read-out: Rel IC50,0.26 nM
same,IC50,M059K; read-out: Abs IC50,15.1 nM
same,IC50,M059K; read-out: Rel IC50,1.01 nM
same,IC50,EB2; read-out: Abs IC50,> 20 nM
same,IC50,EB2; read-out: Rel IC50,0.5 nM
same,IC50,LN 18; read-out: Abs IC50,> 20 nM
same,IC50,LN 18; read-out: Rel IC50,> 20 nM
same,IC50,LNCaP-Clone-FGC; read-out: Abs IC50,> 20 nM
same,IC50,LNCaP-Clone-FGC; read-out: Rel IC50,2.74 nM
same,IC50,NCI-H1793; read-out: Abs IC50,> 20 nM
same,IC50,NCI-H1793; read-out: Rel IC50,0.36 nM
same,animal body weight,A375 V600E xenograft,no animal body weight loss
same,tumor growth,A375 V600E xenograft; all dose groups,tumor growth inhibition and tumor growth regression

# Reference: patent publication US8741911B2, “Raf inhibitor compounds” (Eli Lilly and Company, priority 2012, dated 2014)
